Values joined by “and” are separate entries in the source; they are usually repeats but may differ in a detail not shown here. Equal values may be shown once.
What was measured:
[1] = molecular target: T1, MARV NP (Lake Victoria marburgvirus, UniProt P27588); assay type: binding, Marburg virus
[2] = molecular target: EBOV NP (residues 36–351) (Zaire ebolavirus, UniProt P18272); assay type: biochemical, Ebola virus
[3] = molecular target: T2, EBOV NP (Zaire ebolavirus, UniProt P18272); assay type: binding, Ebola virus
[4] = molecular target: T3, MARV NP (amino acids 19–370) (Lake Victoria marburgvirus, UniProt P27588); assay type: binding, Marburg virus
[5] = molecular target: T2, EBOV NP; assay type: binding, Ebola virus; remark: listed apart in the source
[6] = molecular target: T1, MARV NP; assay type: binding, Marburg virus; remark: listed apart in the source
[7] = molecular target: T4, EBOV NP (amino acids 36–351) (Zaire ebolavirus, UniProt P18272); assay type: binding, Ebola virus
[8] = molecular target: MARV NP (residues 19–370) (Lake Victoria marburgvirus, UniProt P27588); assay type: biochemical, Marburg virus
[9] = molecular target: oligomeric EBOV NP 36–450 / ssRNA (Zaire ebolavirus, UniProt P18272); assay: biochemical
[10] = molecular target: T4, EBOV NP (amino acids 36–351); assay type: binding, Ebola virus; remark: listed apart in the source
[11] = molecular target: T3, MARV NP (amino acids 19–370); assay type: binding, Marburg virus; remark: listed apart in the source
[12] = molecular target: T4, EBOV NP (amino acids 36–351); assay type: binding, Ebola virus; remark: listed apart in the source
[13] = molecular target: T3, MARV NP (amino acids 19–370); assay type: binding, Marburg virus; remark: listed apart in the source
[14] = molecular target: the molecule itself; assay: SEC-MALS
[15] = molecular target: the molecule itself; assay: SEC

| Molecule | △Tm [1] | Corr response (SPR) [3] | S/N ratio (peak intensity protein incubation sample vs control) [4] | △Tm [5] | Corr response (SPR) [6] | S/N ratio (peak intensity protein incubation sample vs control) [7] | also measured |
| --- | --- | --- | --- | --- | --- | --- | --- |
| O=C1C[C@@H](c2ccc(O)cc2)Oc2cc(O[C@@H]3O[C@H](CO)[C@@H](O)[C@H](O)[C@H]3O)ccc21 [GC2, Neoliquiritin] | 0.2 ± 0.3 °C | 2.0 RU | 1.87±0.38 | 0.0 ± 0.0 °C | 1.1 RU | 1.31±0.27 | Monomer (%) [2]: 100%; Monomer (%) [8]: 66.3%; Oligomer(%) >1000 kDa [8]: 4.0%; Tetramer (%) [8]: 29.7% |
| O=c1cc(-c2ccc(O)cc2)oc2c([C@@H]3OC[C@H](O)[C@H](O)[C@H]3O)c(O)c([C@@H]3O[C@H](CO)[C@@H](O)[C@H](O)[C@H]3O)c(O)c12 [GC3, Schaftoside] | −0.4 ± 0.3 °C | 2.9 RU | 1.67±0.31 | −0.6 ± 0.1 °C | 2.8 RU | 1.47±0.30 | – |
| O=C(/C=C/c1ccc(O)cc1)c1ccc(O[C@@H]2O[C@H](CO)[C@@H](O)[C@H](O)[C@H]2O)cc1O [GC4, Neoisoliquiritin] | 0.2 ± 0.3 °C | – | 1.59±0.41 | 0.1 ± 0.2 °C | – | 1.46±0.29 | – |
| COc1ccc(-c2coc3cc(O[C@@H]4O[C@H](CO)[C@@H](O)[C@H](O)[C@H]4O)ccc3c2=O)cc1 [GC5, Ononin] | 0.0 ± 0.5 °C | – | 1.18±0.43 | −0.2 ± 0.3 °C | – | 1.34±0.31 | – |
| CC1(C)[C@@H](O[C@H]2O[C@H](C(=O)O)[C@@H](O)[C@H](O)[C@H]2O[C@@H]2O[C@H](C(=O)O)[C@@H](O)[C@H](O)[C@H]2O)CC[C@]2(C)[C@H]3C(=O)C=C4[C@@H]5C[C@@](C)(C(=O)O)CC[C@]5(C)CC[C@@]4(C)[C@]3(C)CC[C@@H]12 [GC6, Glycyrrhizin] | −0.2 ± 0.3 °C | – | 1.46±0.73 | 0.1 ± 0.2 °C | – | 1.84±0.12 | – |
| CC1(C(=O)O)CCC2(C)CCC3(C)C(=CC(=O)C4C5(C)CCC(O)C(C)(C)C5CCC43C)C2C1 (stereo not drawn) [GC7, 18β-Glycyrrhetinic acid] | −1.1 ± 0.1 °C | 128 RU | 2.79±0.34 | −9.2 ± 0.4 °C | 35.8 RU | 2.62±0.46 | Oligomer(%) <1000 kDa [2]: 68.7%; IC50 [9]: ~160 µM; decrease of the protein melting temperature [5]: 9 °C; Monomer (%) [8]: 71.0% and 84.5%; Oligomer(%) >1000 kDa [8]: 6.2% and 6.9%; BF% (fraction of compound associated with the NP protein) [10]: 11.0% ± 1.1%; S/N [10]: 2.7 ± 0.3; BF% (fraction of compound associated with the NP protein) [11]: 16.9% ± 4.1%; S/N [11]: 2.3 ± 0.4 |
| O=C1C[C@@H](c2ccc(O)cc2)Oc2cc(O)ccc21 [GC8, Liquiritigenin] | – | – | 1.28±0.18 | – | – | 0.96±0.22 | – |
| COc1ccc(-c2coc3cc(O)ccc3c2=O)cc1O [GC9, Calycosin] | – | – | 1.60±0.36 | – | – | 1.21±0.25 | – |
| CC1(C)[C@@H](O)CC[C@]2(C)[C@H]3C(=O)C=C4[C@H]5C[C@@](C)(C(=O)O)CC[C@]5(C)CC[C@@]4(C)[C@]3(C)CC[C@@H]12 [GC10, 18α-Glycyrrhetinic acid] | −0.2 ± 0.3 °C | 8.8 RU | 2.79±0.34 | −0.8 ± 0.4 °C | 5.2 RU | 2.62±0.46 | Monomer (%) [2]: 64.0%; Oligomer(%) >1000 kDa [2]: 36.0%; Monomer (%) [8]: 63.3%; Oligomer(%) >1000 kDa [8]: 0.5%; Tetramer (%) [8]: 36.2%; BF% (fraction of compound associated with the NP protein) [10]: 0.1% ± 0.0%; S/N [10]: 1.2 ± 0.1; BF% (fraction of compound associated with the NP protein) [11]: 0.9% ± 0.5%; S/N [11]: 1.8 ± 0.1 |
| O=C(/C=C/c1ccc(O)cc1)c1ccc(O)cc1O [GC11, Isoliquiritigenin] | – | – | 1.08±0.04 | – | – | 1.11±0.16 | – |
| O=C1C[C@@H](c2ccc(O[C@@H]3O[C@H](CO)[C@@H](O)[C@H](O)[C@H]3O)cc2)Oc2cc(O)ccc21 [GC12, Liquiritin] | – | – | 1.87±0.38 | – | – | 1.31±0.27 | – |
| C=CC(C)(C)c1cc(/C=C/C(=O)c2ccc(O)cc2)c(OC)cc1O [GC13, Licochalcone A] | 0.7 ± 0.6 °C | 43.8 RU | 6.54±0.52 | −3.2 ± 0.3 °C | 29.2 RU | 5.61±1.11 | Monomer (%) [2]: 100%; Monomer (%) [8]: 29.0%; Oligomer(%) >1000 kDa [8]: 2.6%; Tetramer (%) [8]: 68.3%; increase of tetramer formation [8]: > 2 fold; BF% (fraction of compound associated with the NP protein) [10]: 0.3% ± 0.0%; S/N [10]: 6.0 ± 1.3; BF% (fraction of compound associated with the NP protein) [11]: 0.1% ± 0.1%; S/N [11]: 11.0 ± 1.9 |
| O=C(/C=C/c1ccc(O[C@@H]2O[C@H](CO)[C@@H](O)[C@H](O)[C@H]2O)cc1)c1ccc(O)cc1O [GC14, Isoliquiritin] | – | – | 1.61±0.19 | – | – | 0.49±0.02 | – |
| Liquiritin apioside [GC1] | −0.2 ± 0.3 °C | 3.1 RU | 1.85±0.35 | −0.5 ± 0.2 °C | 2.0 RU | 1.37±0.28 | S/N AVE [12]: 1.07; VIP [12]: 2.03; S/N AVE [13]: 1.53; VIP [13]: 5.68 |
| Marburg virus nucleoprotein core domain (MARV NP, amino acids 19-370) (domain or fragment) RNKKVILFDTNHQVSICNQIIDAINSGIDLGDLLEGGLLTLCVEHYYNSDKDKFNTSPVAKYLRDAGYEFDVIKNADATRFLDVSPNEPHYSPLILALKTLESTESQRGRIGLFLSFCSLFLPKLVVGDRASIEKALRQVTVHQEQGIVTYPNHWLTTGHMKVIFGILRSSFILKFVLIHQGVNLVTGHDAYDSIISNSVGQTRFSGLLIVKTVLEFILQKTDSGVTLHPLVRTSKVKNEVASFKQALSNLARHGEYAPFARVLNLSGINNLEHGLYPQLSAIALGVATAHGSTLAGVNVGEQYQQLREAAHDAEVKLQRRHEHQEIQAIAEDDEERKILEQFHLQKTEITH | – | – | – | – | – | – | stoichiometry N [14]: 4 |
| Ebola virus nucleoprotein, residues 36-450 (EBOV NP 36-450) (domain or fragment) VRQRVIPVYQVNNLEEICQLIIQAFEAGVDFQESADSFLLMLCLHHAYQGDYKLFLESGAVKYLEGHGFRFEVKKRDGVKRLEELLPAVSSGKNIKRTLAAMPEEETTEANAGQFLSFASLFLPKLVVGEKACLEKVQRQIQVHAEQGLIQYPTAWQSVGHMMVIFRLMRTNFLIKFLLIHQGMHMVAGHDANDAVISNSVAQARFSGLLIVKTVLDHILQKTERGVRLHPLARTAKVKNEVNSFKAALSSLAKHGEYAPFARLLNLSGVNNLEHGLFPQLSAIALGVATAHGSTLAGVNVGEQYQQLREAATEAEKQLQQYAESRELDHLGLDDQEKKILMNFHQKKNEISFQQTNAMVTLRKERLAKLTEAITAASLPKTSGHYDDDDDIPFPGPINDDDNPGHQDDDPTDSQ | – | – | – | – | – | – | binding result [15]: binds |

Reference: paper PMC4940736 (Scientific Reports, 2016)
